The target of one experiment is T1, h-TGR5 (Homo sapiens, UniProt Q8TDU6).
T1 construct: expressed in transfected cells
T1 sequence (Q8TDU6 1-330): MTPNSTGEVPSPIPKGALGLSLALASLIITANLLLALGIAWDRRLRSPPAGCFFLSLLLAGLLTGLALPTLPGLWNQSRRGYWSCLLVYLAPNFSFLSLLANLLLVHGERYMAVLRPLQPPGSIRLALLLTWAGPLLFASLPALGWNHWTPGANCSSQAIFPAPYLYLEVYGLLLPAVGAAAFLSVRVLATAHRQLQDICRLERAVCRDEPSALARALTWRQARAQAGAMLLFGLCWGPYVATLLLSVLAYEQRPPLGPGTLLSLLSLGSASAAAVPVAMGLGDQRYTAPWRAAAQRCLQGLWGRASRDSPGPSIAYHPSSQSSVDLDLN
The experiment can be described thus: TGR5 cAMP Assay using Cisbio cAMP Dynamic2 htrf kit (hTGR5CRE-luc HEK 293 cells). The experiment is classed as cell-based. The conditions noted are these: h-TGR5 cAMP EC50, Table 1; read-out: cAMP (EC50). A digest of the protocol: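 […], 4000 hTGR5CRE-luc HEK 293 cells per well, with 0.5 mM IBMX and d2-cAMP, were incubated 30 min at room temperature with compounds in 8-point half-log series, in quadruplicate.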

The target of a further experiment is T2, human TGR5 (h-TGR5) (Homo sapiens, UniProt Q8TDU6).
T2 construct: expressed in transfected cells
T2 sequence (Q8TDU6 1-330): T1 sequence (Q8TDU6 1-330)
The experiment can be described thus: TGR5/CRE-Luciferiase Assay (HEK 293 hTGR5/CRE-Luc cells). The experiment is classed as cell-based. The conditions noted are these: h-TGR5 CRE-Luc EC50, Table 1; read-out: CRE-Luc (EC50). A digest of the protocol:
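HEK293 cells stably carrying hTGR5 and a CRE-luciferase reporter were exposed to serially diluted compounds (diluted in DMEM with 5% DMSO) for 6 h. Cells were then lysed in luciferase buffer, luminescence was read, and EC50 values were derived from dose-response curves.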

Some results are limits rather than exact numbers.

As to `COc1cc(-n2c(C(C)(C)c3ccc(Cl)c(Cl)c3)cnc2SCc2c(F)cc(C(=O)O)cc2Cl)ccc1F` [3-chloro-4-[({5-[1-(3,4-dichlorophenyl)-1-methylethyl]-1-[4-fluoro-3-(methyloxy)phenyl]-1H-imidazol-2-yl}thio)methyl]-5-fluorobenzoic acid], the concentration for a half-maximal effect (EC50) on h-TGR5 and at human TGR5 (h-TGR5) was less than 100 nM in each case.
As to `CC(C)(c1ccc(Cl)c(Cl)c1)c1cnc(SCc2ccc(OCCO)c(S(N)(=O)=O)c2)n1-c1ccc(F)cc1` [5-[({5-[1-(3,4-dichlorophenyl)-1-methylethyl]-1-(4-fluorophenyl)-1H-imidazol-2-yl}thio)methyl]-2-[(2-hydroxyethyl)oxy]benzenesulfonamide], the concentration for a half-maximal effect (EC50) was 100 to 1000 nM on h-TGR5 and less than 100 nM at human TGR5 (h-TGR5).
Take `CC(C)NC(=O)NS(=O)(=O)c1ccc(CSc2ncc(C(C)(C)c3ccc(F)c(C(F)F)c3)n2-c2ccc(F)cc2)c(Cl)c1` [3-chloro-4-({[5-{1-[3-(difluoromethyl)-4-fluorophenyl]-1-methylethyl}-1-(4-fluorophenyl)-1H-imidazol-2-yl]thio}methyl)-N-{[(1-methylethyl)amino]carbonyl} benzenesulfonamide]: the EC50 on h-TGR5 and at human TGR5 (h-TGR5) was 100 to 1000 nM throughout.
Regarding `COc1cc(C(C)(C)c2cnc(SCc3ccc(C(=O)O)c(F)c3)n2-c2ccc(F)cc2)ccc1Cl` [4-({[5-{1-[4-chloro-3-(methyloxy)phenyl]-1-methylethyl}-1-(4-fluorophenyl)-1H-imidazol-2-yl]thio}methyl)-2-fluorobenzoic acid], the EC50 on h-TGR5 was less than 100 nM; at human TGR5 (h-TGR5), 100 to 1000 nM.
For the compound `COc1cc(C(C)(C)c2cnc(SCc3c(F)cc(C(=O)N[C@@H](CCCNC(=N)N)C(=O)O)cc3Cl)n2-c2ccc(F)cc2)ccc1Cl` [N-2-{[3-chloro-4-({[5-{1-[4-chloro-3-(methyloxy)phenyl]-1-methylethyl}-1-(4-fluorophenyl)-1H-imidazol-2-yl]thio}methyl)-5-fluorophenyl]carbonyl}-L-arginine], the EC50 at h-TGR5 and at human TGR5 (h-TGR5) was less than 100 nM throughout.
As to `COc1cc(-n2c(C(C)(C)c3ccc(Cl)c(Cl)c3)cnc2SCc2c(F)cc(C(=O)NCCS(=O)(=O)O)cc2F)ccc1F` [2-[({4-[({5-[1-(3,4-dichlorophenyl)-1-methylethyl]-1-[4-fluoro-3-(methyloxy)phenyl]-1H-imidazol-2-yl}thio)methyl]-3,5-difluorophenyl}carbonyl)amino]ethanesulfonic acid], the half-maximal effective concentration (EC50) at h-TGR5 and at human TGR5 (h-TGR5) was less than 100 nM each time.
Take `COc1ccc(C(C)(C)c2cnc(SCc3cc(F)cc(Cl)c3)n2-c2ccc(F)cc2)cc1OC` [5-{1-[3,4-bis(methyloxy)phenyl]-1-methylethyl}-2-{[(3-chloro-5-fluorophenyl)methyl]thio}-1-(4-fluorophenyl)-1H-imidazole]: the EC50 at h-TGR5 and on human TGR5 (h-TGR5) was less than 100 nM in each case.
Regarding `CC(C)(c1ccc(Cl)c(Cl)c1)c1cnc(CCc2c(F)cc(C(=O)N[C@@H](CCCNC(=N)N)C(=O)O)cc2Cl)n1-c1ccc(F)cc1` [N-2-{[3-chloro-4-(2-{5-[1-(3,4-dichlorophenyl)-1-methylethyl]-1-(4-fluorophenyl)-1H-imidazol-2-yl}ethyl)-5-fluorophenyl]carbonyl}-L-arginine], the 50% effective concentration (EC50) at h-TGR5 and on human TGR5 (h-TGR5) was 100 to 1000 nM each time.
Turning to `CC(C)(c1ccc(Cl)c(Cl)c1)c1cnc(SCc2c(F)cc(C(=O)O)cc2Cl)n1-c1ccc(F)c(OCCCO)c1` [3-chloro-4-{[(5-[1-(3,4-dichlorophenyl)-1-methylethyl]-1-{4-fluoro-3-[(3-hydroxypropyl)oxy]phenyl}-1H-imidazol-2-yl)thio]methyl}-5-fluorobenzoic acid], the EC50 at h-TGR5 and at human TGR5 (h-TGR5) was 100 to 1000 nM in each case.
Consider “4-({[5-{1-[4-chloro-3-(methyloxy)phenyl]-1- methylethyl}-1-(4-fIuorophenyl)-1H-imidazol- 2-yl]thio}methyl)-3,5-difluoro-N-[(pyrrolidin- 1-ylamino)carbonyl]benzenesulfonamide”, for which the concentration giving a half-maximal response (EC50) on h-TGR5 and on human TGR5 (h-TGR5) was less than 100 nM in each case.
As for `CC(=O)COc1ccc(CSc2ncc(C(C)(C)c3ccc(Cl)c(Cl)c3)n2-c2ccc(F)cc2)cc1S(N)(=O)=O` [5-[({5-[1-(3,4-dichlorophenyl)-1-methylethyl]-1-(4-fluorophenyl)-1H-imidazol-2-yl}thio)methyl]-2-[(2-oxopropyl)oxy]benzenesulfonamide], the concentration for a half-maximal effect (EC50) at h-TGR5 was 100 to 1000 nM; at human TGR5 (h-TGR5), less than 100 nM.
Turning to `CC(C)(c1ccc(F)cc1)c1cnc(SCc2ccc(S(=O)(=O)NC(=O)NN3CCCC3)cc2Cl)n1-c1ccc(F)c(Cl)c1` [3-chloro-4-[({1-(3-chloro-4-fluorophenyl)-5-[1-(4-fluorophenyl)-1-methylethyl]-1H-imidazol-2-yl}thio)methyl]-N-[(pyrrolidin-1-ylamino)carbonyl]benzenesulfonamide], the EC50 is 1000 to 10000 nM at h-TGR5 and 100 to 1000 nM on human TGR5 (h-TGR5).
`COc1cc(C(C)(C)c2cnc(SCc3c(F)cc(C(=O)NCCCC(=O)O)cc3Cl)n2-c2ccc(F)cc2)ccc1Cl` [4-({[3-chloro-4-({[5-{1-[4-chloro-3-(methyloxy)phenyl]-1-methylethyl}-1-(4-fluorophenyl)-1H-imidazol-2-yl]thio}methyl)-5-fluorophenyl]carbonyl}amino)butanoic acid]: the EC50 at h-TGR5 and on human TGR5 (h-TGR5) was less than 100 nM throughout.
With `CC(C)(c1ccc(Cl)c(Cl)c1)c1cnc(SCc2ccc(C(=O)O)cc2Cl)n1-c1ccc(F)cc1` [3-chloro-4-[({5-[1-(3,4-dichlorophenyl)-1-methylethyl]-1-(4-fluorophenyl)-1H-imidazol-2-yl}thio)methyl]benzoic acid], the EC50 at h-TGR5 and on human TGR5 (h-TGR5) was 100 to 1000 nM throughout.
In the case of `COc1cc(C(C)(C)c2cnc(SCc3c(F)cc(C(=O)O)cc3Cl)n2-c2ccc(F)cc2)ccc1Cl` [3-chloro-4-({[5-{1-[4-chloro-3-(methyloxy)phenyl]-1-methylethyl}-1-(4-fluorophenyl)-1H-imidazol-2-yl]thio}methyl)-5-fluorobenzoic acid], the EC50 on h-TGR5 and at human TGR5 (h-TGR5) was less than 100 nM each time.
Turning to `COc1cc(C(C)(C)c2cnc(SCc3ccc(S(=O)(=O)NC(=O)NN4CCCC4)cc3Cl)n2-c2ccc(F)c(Cl)c2)ccc1Cl` [3-chloro-4-({[1-(3-chloro-4-fluorophenyl)-5-{1-[4-chloro-3-(methyloxy)phenyl]-1-methylethyl}-1H-imidazol-2-yl]thio}methyl)-N-[(pyrrolidine-1-ylamino)carbonyl]benzenesulfonamide], the results for the EC50 on h-TGR5 and at human TGR5 (h-TGR5) were 100 to 1000 nM and less than 100 nM, respectively.
Taken in the same sequence, the figures for `CC(C)(c1ccc(Cl)c(Cl)c1)c1cnc(SCc2c(F)cccc2Cl)n1-c1ccc(F)c(F)c1` [2-{[(2-chloro-6-fluorophenyl)methyl]thio}-5-[1-(3,4-dichlorophenyl)-1-methylethyl]-1-(3,4-difluorophenyl)-1H-imidazole] were 100 to 1000 nM and less than 100 nM.
In the case of `COCCOCCOCCOCCOCCOCCOCCOCCOCCOCCOCCOCCOCCOCCNS(=O)(=O)c1cc(F)c(CSc2ncc(C(C)(C)c3ccc(Cl)c(OC)c3)n2-c2ccc(F)cc2)c(Cl)c1` [3-chloro-4-({[5-{1-[4-chloro-3-(methyloxy)phenyl]-1-methylethyl}-1-(4-fluorophenyl)-1H-imidazol-2-yl]thio}methyl)-5-fluoro-N-3,6,9,12,15,18,21,24,27,30,33,36, 39,42-tetradecaoxatritetracont-1-ylbenzenesulfonamide], the EC50 on h-TGR5 and at human TGR5 (h-TGR5) was less than 100 nM each time.
For the compound `COc1cc(C(C)(C)c2cnc(SCc3c(F)cccc3Cl)n2-c2cccnc2)ccc1Cl` [3-(2-{[(2-chloro-6-fluorophenyl)methyl]thio}-5-{1-[4-chloro-3-(methyloxy)phenyl]-1-methylethyl}-1H-imidazol-1-yl)pyridine], the concentration for a half-maximal effect (EC50) on h-TGR5 and on human TGR5 (h-TGR5) was 100 to 1000 nM each time.
`CC(C)(c1ccc(Cl)c(Cl)c1)c1cnc(SCc2c(F)cc(C(=O)NCS(=O)(=O)O)cc2F)n1-c1ccc(F)c(Cl)c1` [[({4-[({1-(3-chloro-4-fluorophenyl)-5-[1-(3,4-dichlorophenyl)-1-methylethyl]-1H-imidazol-2-yl}thio)methyl]-3,5-difluorophenyl}carbonyl)amino]methanesulfonic acid]: the EC50 at h-TGR5 and on human TGR5 (h-TGR5) was less than 100 nM throughout.
As for `COc1ccc(C(C)(C)c2cnc(SCc3c(F)cc(C#N)cc3F)n2-c2ccc(F)cc2)cc1Cl` [4-({[5-{1-[3-chloro-4-(methyloxy)phenyl]-1-methylethyl}-1-(4-fluorophenyl)-1H-imidazol-2-yl]thio}methyl)-3,5-difluorobenzonitrile], the EC50 on h-TGR5 and on human TGR5 (h-TGR5) was less than 100 nM each time.
As to `COc1cc(C(C)(C)c2c(C)nc(SCc3c(F)cc(C(=O)O)cc3Cl)n2-c2ccc(F)cc2)ccc1Cl` [3-chloro-4-({[5-{1-[4-chloro-3-(methyloxy)phenyl]-1-methylethyl}-1-(4-fluorophenyl)-4-methyl-1H-imidazol-2-yl]thio}methyl)-5-fluorobenzoic acid], the half-maximal effective concentration (EC50) at h-TGR5 was less than 100 nM; on human TGR5 (h-TGR5), 100 to 1000 nM.

A word on the EC50: it is the midpoint of the concentration-response curve.
